This note sets out measurements from US12070445B2, “System and assay for monitoring production/release of membrane-lytic toxins in bacteria and compounds for modulating same” (priority 2021, dated 2024).

The series concerns S. aureus. Put plainly: S. aureus growth (OD600). The conditions noted are these: S. aureus WT and QS mutant with vesicles, 12 hr. Type of series: cell-based. Here is the method:
Microtiter plate vesicle lysis assays. Portions of media (2 or 10 mL) were inoculated with individual bacterial colonies and allowed to shake overnight. From these overnight cultures, subcultures were prepared by diluting the cultures 1:50 (v/v) in fresh BHI for S. aureus or 1:100 (v/v) in fresh LB for P. aeruginosa. An aliquot of each subculture (178 μL) was added to 20 μL of vesicle suspension and 2 μL of compound solution (dissolved in DMSO at 100× working concentration) in a clear-bottomed, black 96-well microtiter plate (Corning 3904). For controls, DMSO (vehicle) or Triton X-100 (1% final concentration) was substituted for compound. Plate covers were coated with an aqueous solution of 0.05% Triton X-100 and 20% ethanol (Brewster, 2003) to prevent the accumulation of condensation. Plates were incubated in a Biotek Synergy 2 microplate reader running Gen5 1.05 software at 37° C. with shaking at the high-speed setting. Fluorescence (excitation 500 nm, emission 540 nm) and OD600 (absorbance at 600 nm) measurements were recorded every 15 minutes for 12 hours. All experiments were performed in technical triplicate in a single microtiter plate. Biological triplicates were then obtained over three days. GraphPad Prism software (v. 9) was used to generate curves and calculate standard error.
High-throughput screening and follow-up analysis protocols. Test compounds and positive control 1 were delivered in 2.5 nL aliquots of DMSO with an Echo 550 liquid handler (LabCyte Inc.) into black 384-well microtiter plates (Corning). All test compounds were tested at 10 μM; positive control 1 was tested at 250 nM. DMSO was used as a negative control. Overnight cultures (2 mL) of WT S. aureus (RN6390b) were grown at 37° C. with shaking at 200 rpm. These cultures were diluted 1:500 (v/v) in fresh BHI medium, at which point vesicle solutions were added to a final concentration of 1 mM phospholipid (as determined by ^31P NMR analyses). This vesicle-cell mixture was then added to the 384-well microtiter plates with a Multidrop 384 liquid-dispensing robot (Thermo Scientific) for a total volume of 50 μL per well. Plates were incubated statically for ˜24 hr at 37° C., at which point fluorescence (excitation 483, emission 530) and OD600 (absorbance at 600 nm) measurements were made using a CLARIOstarR Plus microtiter plate reader (BMG Labtech) running MARS data analysis software. Scatter plots were generated using the Collaborative Drug Discovery Vault informatics platform. […] Fluorescence (excitation 510, emission 544) and OD600 measurements were acquired with a PerkinElmer EnVision microtiter plate reader running Envision Manager software. […]

On to `CC(C)c1ccc(S(=O)(=O)c2nnn3c2nc(O)c2ccccc23)cc1` [Compound 6, savirin], for which the “impact on cell growth” value was “some effects on growth at later time points”.
